{"source": "patent US11617741B1", "about": "“Method for inhibiting growth of bacteria” (priority 2021, dated 2023)", "key": {"[1]": {"test_system": "ileS and tyrS T-boxes in WT MRSA", "procedure": "Sample preparation of RNA and cDNA. RNA extraction and cDNA preparation were conducted as previously reported. In short, guanidine thiocyanate (0.5 M final concentration)-treated and pelleted bacterial cultures were resuspended in TRIzol, lysed by beat beating with zirconia beads, and centrifuged.\nThe solution was transferred to fresh tubes, and the RNA was extracted with chloroform. The RNA was then pelleted with 100% isopropanol and washed with ice-cold 70% ethanol, resuspended in Millipore water, DNase treated, and extracted with another isopropanol precipitation and ethanol wash. The resulting RNA was quantified using a NanoDrop 3300 (Thermo Fisher), and the quality was assessed by running 1 μg on a denaturing agarose gel. DNA contamination was tested for by PCR followed by agarose gel electrophoresis. cDNA was generated from 1 μg of high-quality RNA using the SuperScript III reverse transcriptase protocol for random primers (Thermo Fisher).\nEither 2-fold or 10-fold dilutions of cDNA were used, and amplification was monitored with Evagreen dye. The expression was normalized to either 23S (B. subtilis 1A5) or 16S (MRSA) and reported as percentage read-through of the T-boxes tested for, calculated using the threshold cycle (2^−ΔΔCT) method."}, "[2]": {"test_system": "T-box controlled genes in MRSA", "test": "RNA sequencing of MRSA grown in minimal media", "format": "cell-based, Staphylococcus aureus"}, "[3]": {"test_system": "S. aureus N315 (MRSA isolate)", "test": "Minimum inhibitory and bactericidal concentration determination", "format": "cell-based, Staphylococcus aureus", "procedure": "(§1) The 96-well plate was organized as follows. Media (100 μl) were added to all wells."}, "[4]": {"test_system": "planktonic growth of Staphylococcus", "protocol": "An overnight culture of S. aureus (ATCC 29213) was diluted to 1×10^7 cells/mL in tryptic soy broth (TSB) supplemented with 10% human plasma (Innovative Research, Novi, Mich. USA) and added to the wells of an MBEC™-HTP Assay Biofilm Innoculator (Innovotech, Edmonton, AB, Canada). The plate was incubated overnight at 37° C. and shaken at 125 rpm. […] Control wells were without a COMPOUND OF Formula I. The treatment plate was incubated for 24 h at 37° C. after which the lid was removed, rinsed with PBS, and placed in a new 96-well plate containing TSB. The biofilm was removed from the assay lid into the recovery plate wells by sonication, a new plate cover was added, and the viability of the biofilm was determined after 24 h of incubation at 37° C. by reading the OD at 625 nm. Three independent experiments were conducted. Concentrations of interest were followed up with colony forming unit (CFU) recovery and scanning electron microscopy analysis. After conclusion of the MBEC assay, the minimum bactericidal concentration (MBC) was determined. The MBC is the lowest concentration of an antibacterial agent required to kill a particular bacterium. The peg lid from the MBEC assay was removed from the challenge plate and 20 μL of medium from each well of the challenge plate was removed and added to a new sterile 96-well plate filled with 180 μL TSB. […]"}, "glyQS T-box": {"test_system": "glyQS T-box", "test": "qRT-PCR transcriptional read-through of T-box-regulated glyQS (confirmation of inhibition of T-box mechanism)", "format": "cell-based, Bacillus subtilis 1A5", "details": "for T-Box targeting: confirmation of inhibition of T-box mechanism from qRT-PCR assay", "text": "Sample preparation of RNA and cDNA."}, "S. aureus N315 (MRSA)": {"test_system": "S. aureus N315 (MRSA)", "test": "Antibiotic resistance frequency (fluctuation assay)", "format": "cell-based, Staphylococcus aureus", "details": "MRSA plated on 64 μg/ml PKZ18-22 or 10 μg/ml gentamicin", "text": "Gentamicin on BHI agar was used as a control."}, "S. aureus N315": {"test_system": "S. aureus N315", "test": "Checkerboard assay and FIC", "format": "cell-based, Staphylococcus aureus", "procedure": "S. aureus N315 cultures were prepared identically to MIC determination in BHI media. The co-MICs were determined using the checkerboard method. In short, antibiotics to be tested with PKZ18 analogs were diluted 2-fold top to bottom (A to G rows) in a 96-well plate, PKZ18 analogs were diluted 2-fold right to left (columns 11-2 of the 96-well plate), and column 12 was used for vector, media, and growth controls. Each drug was therefore tested by itself and with every dilution of the other drug.\nThe synergistic and additive interactions were determined based on determined cutoffs using the equation\n[formula] where MICAB is the lowest possible concentration of both drugs combined where there is no growth, and MICA and MICB are the MIC values of the individual drugs. For a synergistic drug interaction, the fractional inhibitory concentration (FIC) should be below 0.5, additive or indifferent effects are considered in an FIC range of 0.5 to <4, and an FIC value above 4 is considered antagonistic."}, "B. subtilis 168 [5]": {"test_system": "B. subtilis 168", "test": "Minimum inhibitory concentration determination", "format": "cell-based, Bacillus subtilis", "procedure": "as §1"}, "E. coli": {"test_system": "E. coli", "test": "Minimum inhibitory and bactericidal concentration determination, Gram-negative control", "format": "cell-based, Escherichia coli", "procedure": "as §1"}, "B. subtilis 168 [6]": {"test_system": "B. subtilis 168", "procedure": "Gentamicin on BHI agar was used as a control. In short, MRSA and B. subtilis were grown overnight in BHI, and 3-hour day cultures at the optical density of A620 of 0.1 were started for both organisms. The optical density after 3 hours of growth was measured; cultures were then pelleted and resuspended to give 10^11 CFU/ml by optical density. CFU of 10^11 per OD were plated in total; 100 μl of the cells were then plated on BHI agar containing either 128 μg/m1PKZ18 or 64 μg/m1PKZ18-22. Serial dilutions of the cells were plated on plain BHI agar in order to calculate the CFU/ml, which was calculated as the number of colonies found on the plates divided by the total number of bacteria plated. CFU means colony forming units, a measure of live bacteria."}, "S. aureus biofilm": {"test_system": "S. aureus biofilm", "test": "MBEC-HTP biofilm model, combinations, Bliss independence model and CFU recovery", "format": "cell-based, Staphylococcus aureus", "procedure": "This inherent resistance of bacteria in biofilms and the emergence of antibiotic-resistant bacteria has necessitated the drive to explore competent novel antimicrobial agents such as PKZ18 and the development of combinations of these novel antimicrobial agents with established antibiotics. We determined the minimum biofilm eradication concentration (MBEC) of compounds of Formula I in combination with vancomycin, gentamicin, rifampin, and tetracycline. Three independent experiments were conducted and required a checkerboard dilution to test various concentrations of the following combinations (compound of Formula I+each antibiotic) against S. aureus utilizing an established MBEC™-HTP biofilm model (Innovotech).\nBriefly, an overnight culture of S. aureus was diluted to 1×10^5 cells/mL in cation-adjusted Mueller Hinton broth (MHB) supplemented with 1% human plasma and added to the wells of an MBEC plate. […] After incubation, the lid was removed and rinsed in PBS. Following treatment, a tetrazolium (2,3,5-triphenyl tetrazolium chloride, TTC) assay was performed to assess metabolic activity and viability. The lid was rinsed in PBS, transferred to a 96-well plate containing a 0.01% TTC solution in MHB, and incubated at 37° C. overnight. To dissolve the stain from the pegs, the lid was placed in a 96-well plate containing 96% ethanol and the OD of the wells was then read at 490 nm. Data was analyzed with the Bliss independence model using the Combenefit software.\nAfter rinsing in PBS, designated pegs were snapped off the lid using sterile tweezers and placed in 1.5 mL Eppendorf tubes containing 200 μL PBS. Biofilm was disrupted from the pegs by sonicating the tubes for 15 min (Branson M8800H, Branson Ultrasonics, West Chester, Pa., USA), followed by vortexing for 10 s. Three independent serial dilutions were prepared for each sample and plated on tryptic soy agar (TSA) plates that were incubated overnight at 37° C. The plates were then imaged and colonies counted on a ColonyDoc-It™ Imaging station (UVP, Analytik Jena, Beverly, Mass., USA)."}}, "note": "Marks after values point to notes of the source that are not given here.", "data": [{"smiles": "CC(C)Cc1ccc(-c2csc(NC(=O)C3C4CCC(C4)C3C(=O)O)n2)cc1", "note": "(centres unmarked) [PKZ18-22]", "values": [{"measurement": "relative read-through of ileS and tyrS", "setting": "[1]; MRSA in minimal media, 4 μg/ml", "value": "decrease"}, {"measurement": "read-through of ileS and tyrS", "setting": "[1]; MRSA in rich media, 8 μg/ml", "value": "reduced"}, {"measurement": "cysteine and histidine T-boxes (cysE-cysS and hisS-aspS operons)", "setting": "[2]; 4 and 8 μg/ml", "value": "inhibited only by the higher concentration"}, {"measurement": "read-through of alaS", "setting": "[2]; 4 and 8 μg/ml", "value": "not inhibited"}, {"measurement": "read-through reduction of tyrS", "setting": "[2]; 4 and 8 μg/ml", "value": "not statistically significant"}, {"measurement": "overall change in gene expression", "setting": "[2]; 4 and 8 μg/ml vs untreated", "value": "large overall change in expression"}, {"measurement": "genes under T-box control (out of the 12) with reduced expression", "setting": "[2]; 4 or 8 μg/ml PKZ18-22", "value": 8}, {"measurement": "read-throughs of glyS, ileS, leuS, pheST, serS, thrS and valS", "setting": "[2]; both concentrations (4 and 8 μg/ml), normalized to untreated", "value": "reduction"}, {"measurement": "relative read-through of other riboswitch-controlled genes", "setting": "[2]; non-T-box 5′UTR regulated genes", "value": "did not significantly change"}, {"measurement": "bactericidal effect", "setting": "[3]; MRSA", "value": "bactericidal"}, {"measurement": "fold reduction in MIC in minimal compared to rich media", "setting": "[3]; MRSA strain S. aureus N315", "value": 4, "unit": "fold"}, {"measurement": "MIC against S. aureus in minimal media", "setting": "[3]; S. aureus N315, minimal media", "value": "8^b μg/ml"}, {"measurement": "MIC against S. aureus in rich media", "setting": "[3]; S. aureus N315, rich media", "value": "32^b μg/ml"}, {"measurement": "MIC S. aureus N315", "setting": "[3]; Table 2", "value": 32, "unit": "µg/mL"}, {"measurement": "MBC S. aureus N315", "setting": "[3]; Table 2, value in parentheses", "value": 64, "unit": "µg/mL"}, {"measurement": "planktonic growth over a range of concentrations", "setting": "[4]", "value": "killing curve"}, {"measurement": "inhibition of read-through compared with PKZ18", "setting": "glyQS T-box; 4 μg/ml of each drug, side by side in same biological replicate", "value": "significantly better than PKZ18"}, {"measurement": "T-box-controlled expression of glyQS (termination of read-through)", "setting": "glyQS T-box; B. subtilis 1A5, increasing concentrations, minimal media", "value": "inhibited"}, {"measurement": "T-Box targeting", "setting": "glyQS T-box; Table 1", "value": "Yes"}, {"measurement": "T-Box targeting", "setting": "glyQS T-box; Table 2", "value": "Yes"}, {"measurement": "resistance frequency", "setting": "S. aureus N315 (MRSA)", "value": "5.6×10^−12"}, {"measurement": "FIC of PKZ18-22 and gentamicin", "setting": "S. aureus N315; both rich and minimal media, WT MRSA", "value": 0.38}, {"measurement": "fold decrease in the MIC of PKZ18-22", "setting": "S. aureus N315; in combination with gentamicin", "value": 4, "unit": "fold"}, {"measurement": "fractional inhibitory concentration FIC", "setting": "S. aureus N315; with ampicillin", "value": 0.75}, {"measurement": "fractional inhibitory concentration FIC", "setting": "S. aureus N315; with chloramphenicol", "value": 0.75}, {"measurement": "fractional inhibitory concentration FIC", "setting": "S. aureus N315; with gentamicin", "value": 0.38}, {"measurement": "fractional inhibitory concentration FIC", "setting": "S. aureus N315; with kanamycin A", "value": 0.38}, {"measurement": "fractional inhibitory concentration FIC", "setting": "S. aureus N315; with neomycin B", "value": 0.38}, {"measurement": "fractional inhibitory concentration FIC", "setting": "S. aureus N315; with streptomycin", "value": 0.75}, {"measurement": "bactericidal effect", "setting": "B. subtilis 168 [5]; B. subtilis 168", "value": "bactericidal"}, {"measurement": "MIC against B. subtilis 168 in minimal media", "setting": "B. subtilis 168 [5]; minimal media", "value": 4, "unit": "µg/mL"}, {"measurement": "MIC against B. subtilis 168 in rich media", "setting": "B. subtilis 168 [5]; rich media", "value": 16, "unit": "µg/mL"}, {"measurement": "MIC E. coli", "setting": "E. coli", "value": "> 256", "unit": "µg/mL"}, {"measurement": "MBC E. coli", "setting": "E. coli; value in parentheses", "value": "> 256", "unit": "µg/mL"}, {"measurement": "resistant colonies", "setting": "B. subtilis 168 [6]", "value": "did not generate resistant colonies"}, {"measurement": "highest synergy score (Bliss)", "setting": "S. aureus biofilm; PKZ18-22 25 μg/mL and gentamicin 16 μg/mL and 64 μg/mL", "value": 87}, {"measurement": "log reduction in CFU/mL in biofilm growth", "setting": "S. aureus biofilm; PKZ18-22 25 μg/mL and gentamicin 64 μg/mL, 24 h exposure", "value": "~5", "unit": "log"}, {"measurement": "biofilm CFU reduction with rifampin combination", "setting": "S. aureus biofilm; PKZ18-22 25 μg/mL and rifampin 0.001 or 0.005 μg/mL, single dose 24 h", "value": "significantly greater reduction when compared to each treatment alone"}, {"measurement": "maximal synergy score (Bliss)", "setting": "S. aureus biofilm; PKZ18-22 25 μg/mL and vancomycin 4 μg/mL", "value": 43}, {"measurement": "cell reduction", "setting": "S. aureus biofilm; combination of gentamicin/PKZ18-22, single dose 24 h challenge", "value": "> 99.9", "unit": "%"}, {"measurement": "synergy with minocycline", "setting": "S. aureus biofilm; single dose 24 h challenge", "value": "not synergistic"}]}]}
